Measured values from US10821079B2, “PKC activators and combinations thereof” (Cognitive Research Enterprises, Inc., priority 2011, dated 2020).
pEC50: −log10 of the molar value.

Experiments:
[1] = target: T1, PKC-ε (Homo sapiens, UniProt Q02156); assay: Activation of purified PKC isozymes, radiometric: PKC-ε; assay type: biochemical; conditions: for Specificity ε/α: Activation of PKC-ε ÷ activation or inhibition of PKCα at 3 × EC50
T1 sequence (Q02156 1-737): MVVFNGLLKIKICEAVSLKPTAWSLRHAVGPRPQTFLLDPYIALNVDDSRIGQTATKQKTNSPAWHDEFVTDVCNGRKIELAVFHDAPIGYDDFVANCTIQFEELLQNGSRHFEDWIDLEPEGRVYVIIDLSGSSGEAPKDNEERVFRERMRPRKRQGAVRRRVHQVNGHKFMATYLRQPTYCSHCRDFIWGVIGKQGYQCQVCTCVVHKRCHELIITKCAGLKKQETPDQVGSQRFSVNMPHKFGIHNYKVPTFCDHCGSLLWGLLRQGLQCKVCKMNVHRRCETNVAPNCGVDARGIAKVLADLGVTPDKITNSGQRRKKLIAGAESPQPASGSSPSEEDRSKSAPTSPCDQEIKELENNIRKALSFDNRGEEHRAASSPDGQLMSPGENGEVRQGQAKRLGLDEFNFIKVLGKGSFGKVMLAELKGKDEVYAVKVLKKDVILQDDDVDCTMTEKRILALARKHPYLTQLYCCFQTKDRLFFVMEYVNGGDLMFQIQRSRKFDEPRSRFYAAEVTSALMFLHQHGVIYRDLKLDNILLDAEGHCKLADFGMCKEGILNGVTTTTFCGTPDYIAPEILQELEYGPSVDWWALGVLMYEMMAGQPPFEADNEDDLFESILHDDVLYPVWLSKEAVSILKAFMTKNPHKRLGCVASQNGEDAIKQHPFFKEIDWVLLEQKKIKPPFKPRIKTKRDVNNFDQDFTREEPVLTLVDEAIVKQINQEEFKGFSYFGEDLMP
Protocol: (§1) To measure PKC, 10 μl of cell homogenate or purified PKC isoform was incubated for 15 min at 37° C. in the presence of 10 μM histones, 4.89 mM CaCl2, 1.2 μg/μl phosphatidyl-L-serine, 0.18 μg/μl 1,2-dioctanoyl-sn-glycerol, 10 mM MgCl2, 20 mM HEPES (pH 7.4), 0.8 mM EDTA, 4 mM EGTA, 4% glycerol, 8 μg/ml aprotinin, 8 μg/ml leupeptin, and 2 mM benzamidine. [γ32P]ATP (0.5 μCi) was added and 32P-phosphoprotein formation was measured by adsorption onto phosphocellulose as described previously. See Nelson et al., J. Neurochemistry, 1995, 65: 2350-2357.
(§2) PKC activity of each compound was measured in the absence of diacylglycerol and phosphatidylserine and PKC-δ and PKC-ε were measured in the absence of added EGTA and CaCl2, as described by Kanno et al., J. Lipid Res., 2006, 47: 1146-1156. Low concentrations of Ca^2+ were needed because high Ca^2+ can interact with the PKC phosphatidylserine binding site and prevents activation. […] To determine their PKC isoform specificity, the compounds were pre-incubated with purified isoforms of PKC for five minutes and the PKC activity was measured radiometrically.
(§3) The activation and PKC isozyme specificity of DCPLA-ethyl ester was measured following the procedures in Example 1(B) and (C), except that 9 ng of the purified isozyme was used and it was pre-incubated for 5 minutes at room temperature (FIG. 3). PKC-ε activation by DCPLA-tert-butyl ester and DCPLA-retinyl ester was measured in the same manner as DCPLA-ethyl ester (FIG. 3).
The EC50 values, PKC specificity, and activation for a select number of DCPLA esters was determined (see Table 1). EC50 values were determined by measuring the lowest concentration that activates by 50% of maximum activation. […] The specificity and activation of PKC by the various esters of DCPLA were calculated from the measurements of activation of PKC isozymes.

[2] = target: PKCα (Homo sapiens, UniProt P17252); assay: Activation of purified PKC isozymes, radiometric: PKC-α; assay type: biochemical
Protocol: (§4) To measure PKC activity, 10 μg of protein from either cytosol or membrane was incubated for 15 min at 37° C. in the presence of 10 μM histones, 4.89 mM CaCl2, 1.2 μg/μl phosphatidyl-L-serine, 0.18 μg/μl 1,2-dioctanoyl-sn-glycerol, 10 mM MgCl2, 20 mM HEPES (pH 7.4), 0.8 mM EDTA, 4 mM EGTA, 4% glycerol, 8 μg/ml aprotinin, 8 μg/ml leupeptin, 2 mM benzamidine, and 0.5 μCi of [γ-^32P]ATP. [^32P]Phosphoprotein formation was measured by adsorption onto phosphocellulose as described previously. See Nelson et al. (2009) J Biol Chem 284, 34514-34521. For measurements of activation by RA, PKC activity was measured in the absence of diacylglycerol (DAG) and phosphatidylserine, as described by Nelson et al. (2009) J Biol Chem 284, 34514-34521. PKC-δ and PKC-ε were measured in the absence of added EGTA and CaCl^2, as described by Kanno et al. (2006) J Lipid Res 47, 1146-1156. The enzyme was provided as a purified isozyme for in vitro experiments.
as §1, §2, §3

[3] = tested on: phosphatidylserine (C2) binding site; assay: 3H-DCPLA-ME binding to rat brain slices with competitors, film autoradiography
Protocol: To determine the binding site of DCPLA-ME, ^3H-DCPLA-ME was incubated with rat brain slices in the absence and presence of known C1 and C2 competitors. More specifically, rat brain sections were fixed with formaldehyde, sliced, and incubated with (1) ^3H-DCPLA-ME alone; (2) ^3H-DCPLA-ME with DCPLA; (3) ^3H-DCPLA-ME with Phorbol ester; or (4) ^3H-DCPLA-ME and Bryostatin 1. After incubation, the slices were washed with a buffer made of 130 mM NaCl, 5 mM MgCl, 5 mM KCl, 1 mM EGTA, and 0.1% bovine serum albumin in 10 mM HEPES-NaOH, pH 7.4, dried, and analyzed with film-autoradiography.

[4] = target: PKC-δ (Homo sapiens, UniProt Q05655); assay: Activation of purified PKC isozymes, radiometric: PKC-δ; assay type: biochemical
Chain of PKC-δ (Q05655 whole entry): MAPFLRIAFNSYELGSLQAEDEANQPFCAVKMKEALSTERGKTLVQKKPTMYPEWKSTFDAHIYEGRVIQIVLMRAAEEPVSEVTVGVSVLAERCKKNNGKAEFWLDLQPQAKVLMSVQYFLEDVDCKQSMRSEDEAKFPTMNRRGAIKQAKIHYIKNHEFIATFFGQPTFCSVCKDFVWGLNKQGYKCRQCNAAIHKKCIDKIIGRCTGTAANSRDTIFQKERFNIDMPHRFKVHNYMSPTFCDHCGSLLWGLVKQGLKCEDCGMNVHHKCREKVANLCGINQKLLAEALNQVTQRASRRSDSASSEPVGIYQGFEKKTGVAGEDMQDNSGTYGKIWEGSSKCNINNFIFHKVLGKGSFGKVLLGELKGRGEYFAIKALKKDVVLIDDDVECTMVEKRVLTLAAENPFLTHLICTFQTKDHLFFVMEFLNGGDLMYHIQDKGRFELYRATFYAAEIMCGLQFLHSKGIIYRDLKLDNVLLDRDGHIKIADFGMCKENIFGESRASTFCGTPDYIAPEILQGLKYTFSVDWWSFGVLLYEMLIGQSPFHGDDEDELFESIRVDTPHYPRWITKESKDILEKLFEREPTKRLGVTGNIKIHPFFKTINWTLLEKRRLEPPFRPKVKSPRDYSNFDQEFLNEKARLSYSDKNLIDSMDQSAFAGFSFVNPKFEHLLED
Protocol: as §4, §1, §2

[5] = tested on: rat primary hippocampal neurons; assay: Neurotoxic effect of Aβ1-42 assemblies, MTT viability; assay type: cell-based; conditions: 20 hr
Protocol: Viability of cells was measured by MTT assay. MTT (3-(4,5-Dimethylthiazol-2-yl)-2,5-diphenyltetrazolium bromide) is a tetrazolium salt that is cleaved to formazan by the succinate dehydrogenase, which is only active in viable cells. After solubilization of the formazan, the amount of dye can be quantified with a microplate reader at 570 nm along with a reference of 630 nm. For MTT assay, 5×104 primary rat hippocampal neurons from 18-day-old embryonic Sprague-Dawley rat brains were plated on each well of 24-well plates coated with poly-D-lysine. After treatment, the cells were washed with 1×PBS and were incubated with 200 μl of 1 mg/ml MTT solution (Sigma, USA) at 37° C. for 2 hr. Then the MTT-solution was removed and the cells were lysed with 200 μl isopropanol containing 0.04 M HCl and 160 mM NaOH for 10 min. Finally, the reading was done at 570 nm and 630 nm. All the samples were done in triplicates and the data was represented as the percentage of control.
To assess the neurotoxic effect of different sized oligomers, rat primary hippocampal neurons were treated with variable concentrations of these Aβ1-42 species for 20 hr. Viability of the treated cells was compared to untreated cells using the MTT assay.

[6] = tested on: PKC-ε; assay: PKC-ε translocation to membrane in SH-SY5Y cells (Western blot); assay type: cell-based, human; conditions: ASPD; ADDL at 20-fold higher concentrations
Protocol: Cells were harvested in homogenizing buffer containing 10 mM Tris-Cl (pH 7.4), 1 mM PMSF (phenylmethylsulfonyl fluoride), 1 mM EGTA, 1 mM EDTA, 50 mM NaF, and 20 μM leupeptin and were lysed by sonication. The homogenate was centrifuged at 100,000×g for 15 min at 4° C. to obtain the cytosolic fraction (supernatant) and membrane (pellet). The pellet was resuspended in the homogenizing buffer by sonication. Protein concentration was measured using the Coomassie Plus (Bradford) Protein Assay kit (Pierce, USA). Following quantification, 20 μg of protein from each sample was subjected to SDS-PAGE analysis in 4-20% gradient Tris-Glycine gel (Invitrogen, USA). The separated protein was then transferred to nitrocellulose membrane. The membrane was blocked with BSA at room temperature for 15 min and was incubated with primary antibody over night at 4° C. After the incubation, it was washed three times with TBS-T (Tris Buffered saline-Tween 20) and further incubated with alkaline phosphatase conjugated secondary antibody (Jackson Immunoresearch Laboratories, USA) at 1:10,000 dilution for 45 min. The membrane was finally washed three times with TBS-T and developed using the 1-step NBT-BCIP substrate (Pierce, USA). Western Blot was imaged in the ImageQuant RT-ECL (GE Life Sciences, Piscataway, N.J.) and densitometric quantification was performed using the IMAL software (Blanchette Rockefeller Neurosciences Institute, Morgantown, W. Va.). For translocation assays, PKC activation was represented as the percentage of total protein in the membrane (membrane/cytosol+membrane).
Equal amounts of proteins were loaded in each lane (20 μg) for both the cytosol and membrane fractions. Activation of PKC was calculated as the percentage of total PKC in the membrane (membrane/cytosol+membrane).

[7] = tested on: rat hippocampal primary neurons; assay: Synaptic marker immunofluorescence in rat hippocampal primary neurons; assay type: cell-based; conditions: 50 nM ASPDs; 1 μM ADDLs; 20 hr
Protocol: Cells were grown in two chambered slides (Nunc, USA) at low density. For immunofluorescence staining, the cells were washed with PBS (pH 7.4) and fixed with 4% paraformaldehyde for 4 min. Following fixation, the cells were blocked and permeabilized with 5% serum and 0.3% Triton X 100 in 1×PBS for 30 min. The cells were washed three times with 1×PBS and incubated with primary antibodies for 1 hr at 1:100 dilution. The incubation slides were then washed again three times in 1×PBS and were incubated with the FITC anti-rabbit IgG and Rhodamine anti-mouse IgG for 1 hr at 1:400 dilution. The cells were further washed and treated with DAPI (4′,6-diamidino-2′-phenylindole, dihydrochloride) (Thermo Scientific, USA) to stain the nucleus. Finally, the slides were washed and mounted in Pro Long Gold antifade mounting solution (Invitrogen, USA) and were viewed under the LSM 710 Meta confocal microscope (Zeiss) at 350 nm, 490 nm, and 540 nm excitation and 470 nm, 525 nm, and 625 nm emission for DAPI, FITC, and Rhodamine respectively. Six individual fields at 63× oil lens magnification were analyzed for the mean fluorescence intensity (MFI) in each channel. The co-localization correlation generated by the ZEN software (Zeiss).
To estimate the synaptic damage caused by the ASPDs on primary hippocampal neurons, the expression of synaptophysin (a presynaptic marker) and PSD-95 (a postsynaptic marker) was measured by immunofluorescence staining. […] Following a 20 hr incubation period, the cells were stained for nucleus, PSD-95, and synaptophysin. Expression levels were calculated as the change of percentage in mean fluorescence intensity compared to untreated cells.
Primary neurons, treated and untreated, were immunostained for MAP-2, synaptophysin, and PSD-95 to determine the synaptic integrity. […] Following a 20 hr incubation period, the cells were stained for MAP-2, PSD-95, and synaptophysin as described above.

CCCCC/C=C\C/C=C\CCCCCCCC(=O)O[C@H]1CC[C@@]2(C)C(=CC[C@H]3[C@@H]4CC[C@H]([C@H](C)CCCC(C)C)[C@@]4(C)CC[C@@H]32)C1 [Cholesteryl linoleate, cholesteryl linoleate]
PKC-ε activation (in words) [1]: little or no activation
PKC-α activation [2]: 20%

CCCCCC1CC1CC1CC1CCCCCCCC(=O)O (stereo not shown) [DCPLA, cyclopropanated linoleic acid]
Specificity ε/α [1]: 7.4
3H-DCPLA-ME binding, 30 nM competitor [3]: 86%
3H-DCPLA-ME binding, 1 μM competitor [3]: 35%

CCCCCC1CC1CC1CC1CCCCCCCC(=O)OC1CC[C@@]2(C)C(=CC[C@H]3[C@H]4CC[C@H]([C@H](C)CCCC(C)C)[C@@]4(C)CC[C@H]32)C1 (stereo partly shown) [DCPLA-cholesteryl ester]
PKC-ε activation at peak [1]: up to 130 % of control
concentration of maximal activation [1]: 0.01 nM
Specificity ε/α [1]: 0.94
potency relative to Bryostatin-1 ([1]; concentration of maximal activity): 18 ×
effect on PKC-α (in words) [2]: inhibited at all concentrations
PKC-δ activation [4]: up to 130 % of control

CCCCCCCCC1CC1CCCCCCCCOC(=O)CCCCCCCC1CC1CC1CC1CCCCC (stereo not shown) [DCPLA-cyclopropanated oleyl ester]
PKC-ε activation at peak [1]: 140 % of control
concentration of maximal activation [1]: 10 nM
Specificity ε/α [1]: 8.1

CCCCCC1CC1CC1CC1CCCCCCCC(=O)OCC (stereo not shown) [DCPLA-ethyl ester]
Specificity ε/α [1]: 4.2

CCCCCC1CC1CC1CC1CCCCCCCC(=O)OC/C=C(C)/C=C/C=C(C)/C=C/C1=C(C)CCCC1(C)C (stereo not shown) [DCPLA-retinyl ester]
pEC50 ([1]; lowest concentration that activates by 50% of maximum activation): 8.00
Activation ([1]; of PKCε at maximum): 129 % of control

CCCC(=O)O[C@@H]1[C@@H](C)[C@@]2(O)[C@@H](C=C(CO)C[C@]3(O)C(=O)C(C)=C[C@@H]23)[C@@H]2C(C)(C)[C@]12OC(=O)CCC [Phorbol ester (PdBu)]
3H-DCPLA-ME binding, 30 nM competitor [3]: 100%
3H-DCPLA-ME binding, 1 μM competitor [3]: 81%

ADDL: Aβ derived diffusible ligands prepared from Aβ1-42
Viability of primary neuron (Mean ± SEM) ([5]; 50 nM): 91.35 ± 1.44 % of control
Viability of primary neuron (Mean ± SEM) ([5]; 500 nM): 79.01 ± 11.32 % of control
viability of neurons ([5]; 1 μM): 50.98±3.8%
Viability of primary neuron (Mean ± SEM) ([5]; 1000 nM): 49.02 ± 7.26 % of control
PKC-ε membrane translocation [6]: 80.82±4.025%
synaptophysin intensity compared to the control [7]: 75.64±4.84%

oAβ <100 kDa: filtrate from the 100 kDa filtration of the ASPD preparation
Viability of primary neuron (Mean ± SEM) ([5]; 50 nM): 76.01 ± 5.54 % of control
Viability of primary neuron (Mean ± SEM) ([5]; 500 nM): 62.94 ± 9.53 % of control
Viability of primary neuron (Mean ± SEM) ([5]; 1000 nM): 53.52 ± 2.43 % of control
